Data published in ChEMBL document CHEMBL1156622, “1,3,4-Oxadiazole-3(2H)-carboxamide derivatives as potential novel class of monoamine oxidase (MAO) inhibitors: synthesis, evaluation, and role of urea moiety” (Bioorg Med Chem, 2008).

How the values were obtained:
Rattus norvegicus [1] = organism: Rattus norvegicus; test: Inhibition of Monoamine oxidase in rat brain mitochondria at 0.1 mM by kynuramine fluorimetric assay
Rattus norvegicus [2] = organism: Rattus norvegicus; test: Inhibition of Monoamine oxidase in rat brain mitochondria at 1 mM by kynuramine fluorimetric assay
Rattus norvegicus [3] = organism: Rattus norvegicus; test: Inhibition of Monoamine oxidase in rat brain mitochondria at 0.01 mM by kynuramine fluorimetric assay
Rattus norvegicus [4] = organism: Rattus norvegicus; test: Inhibition of Monoamine oxidase in rat brain mitochondria at 0.008 mM by kynuramine fluorimetric assay
Rattus norvegicus [5] = organism: Rattus norvegicus; test: Inhibition of Monoamine oxidase in rat brain mitochondria at 0.08 mM by kynuramine fluorimetric assay
Rattus norvegicus [6] = organism: Rattus norvegicus; test: Inhibition of Monoamine oxidase in rat brain mitochondria at 0.8 mM by kynuramine fluorimetric assay

Compound	inhibition (Rattus norvegicus [1]) [%]	inhibition (Rattus norvegicus [2]) [%]	inhibition (Rattus norvegicus [3]) [%]	inhibition (Rattus norvegicus [4]) [%]	inhibition (Rattus norvegicus [5]) [%]	inhibition (Rattus norvegicus [6]) [%]
CCCCC1(CCCC)OC(c2ccc3c(c2)OCO3)=NN1C(=O)NC(=O)c1c(F)cccc1F	41	78.4	8.37	–	–	–
CCCCC1(CCCC)OC(c2ccc3c(c2)OCO3)=NN1C(=O)NC(=O)c1ccccc1Cl	27.5	75.4	6.73	–	–	–
CCCCC1(CCCC)OC(c2cc(C)cc(C)c2)=NN1C(=O)NC(=O)c1ccccc1Cl	24.6	72.8	4.12	–	–	–
CCCCC1(CCCC)OC(c2ccc(Cl)cc2Cl)=NN1C(=O)NC(=O)c1c(F)cccc1F	25.1	72.5	5.43	–	–	–
CCCCC1(CCCC)OC(c2ccc3c(c2)OCO3)=NN1C(C)=O	–	–	–	1.21	0	0
CCCCC1(CCCC)OC(c2cc(C)cc(C)c2)=NN1C(=O)NC(=O)c1c(F)cccc1F	26.2	69.2	5.85	–	–	–
CCCCC1(CCCC)OC(c2ccc(Cl)cc2Cl)=NN1C(=O)NC(=O)c1cc(F)c(OC)c(F)c1F	25.9	81.8	2.92	–	–	–
CCCCC1(CCCC)OC(c2ccc(Cl)cc2)=NN1C(=O)NC(=O)c1c(F)cccc1F	6.03	58.8	0	–	–	–
CCCCC1(CCCC)OC(c2cc(OC)c(OC)c(OC)c2)=NN1C(=O)NC(=O)c1c(F)cccc1F	21.7	69.2	0	–	–	–
CCCCC1(CCCC)OC(c2cc(C)cc(C)c2)=NN1C(C)=O	–	–	–	2.89	17.7	42.8
CCCCC1(CCCC)OC(c2ccc(Cl)cc2Cl)=NN1C(=O)NC(=O)c1ccccc1Cl	24.9	78	5.86	–	–	–
CCCCC1(CCCC)OC(c2ccco2)=NN1C(=O)NC(=O)c1c(F)cccc1F	23.7	75.1	1.84	–	–	–
CCCCC1(CCCC)OC(c2cc(OC)c(OC)c(OC)c2)=NN1C(C)=O	–	–	–	0	0	0
